Patent US20220110949A1, “A 19-NOR C3,3-DISUBSTITUTED C21-N-PYRAZOLYL STEROID AND METHODS OF USE THEREOF” (Sage Therapeutics, Inc., priority 2017, published 2022)
Marks after values point to notes of the source that are not given here.

How the values were obtained:
healthy adults = test: Safety and tolerability (adverse events) in the study of Example 1; format: in vivo, human; settings: single dose 30 mg or 45 mg
Description: Frequency, type, severity of adverse events; changes in vital sign assessments, clinical laboratory data, electrocardiogram (ECG) parameters, suicidality assessment via the Columbia Suicide Severity Rating Scale (C-SSRS), sleepiness assessment via Karolinska Sleepiness Scale (KSS), and psychomotor performance assessment via Digit Symbol Substitution Test (DSST)
The safety and tolerability of Compound 1 Capsules will be evaluated by frequency, type, and severity of adverse events; mean changes from baseline in clinical laboratory measures, vital signs, ECGs, suicidal ideation using the C-SSRS, sleepiness using the KSS, and psychomotor performance using the DSST.
Adverse events will be classified by type, incidence, severity, and causality. The overall incidence of adverse events will be summarized by Medical Dictionary for Regulatory Activities (MedDRA) system organ class and preferred term. Data for vital signs, clinical laboratory measurements, ECG, and concomitant medication usage will also be summarized. Suicidality data collected using the C-SSRS at baseline and at each visit during the active Treatment Period will be listed for all subjects. The C-SSRS listings will include behavior type and/or category for suicidal ideation and suicidal behavior of the C-SSRS. Out-of-range safety endpoints may be categorized as low or high, where applicable. […]

[1] = system: healthy adults, 5-hour phase advance model of insomnia; test: Double-blind, placebo-controlled 3-way crossover study; polysomnography (PSG) and subjective sleep measures in a 5-hour phase advance model of insomnia; format: in vivo, human; design: LPS decrease from baseline: dose or concentration left out as unconfirmed; settings: for LPS (min), Median / NAW, Median / SE (%) (sleep efficiency), Median / TST (min), Median / WASO (min), Median / mDURAW (min), Median: PSG; for decrease in median duration of awakenings from baseline: baseline 9.364, awakenings in minutes; for TST median change (increase) from baseline: baseline median 317.00 minutes; for Sleep efficiency (SE) increase from baseline (median): median at baseline 66.042%; for WASO median change from baseline: median at baseline 134.00 minutes; for Subjective Sleep Quality (sSQ) Median (min, max): scale of 1 (poor) to 10 (excellent)
Description: Example 1. A Randomized, Double-Blind, Multiple Dose, 3-Way Crossover, Exploratory Study to Assess the Pharmacodynamic Effects of Compound 1 Capsules in Healthy Adults Using a 5-Hour Phase Advance Model of Insomnia
Sleep efficiency, defined as the percentage of time in bed spent asleep, as determined by polysomnography (PSG).
This is a double-blind, placebo-controlled, 3-way crossover study (Treatment Periods 1, 2, and 3), followed by an open-label administration of Compound 1 for pharmacokinetic purposes (Treatment Period 4). Subjects are expected to participate in Treatment Periods 1, 2 and 3. These subjects may continue into Treatment Period 4. If necessary, de novo subjects may also be included in Treatment Period 4 (see FIG. 2).
Subjects who meet the sleep diary continuation criteria will return for Visit 2 (Day −7) for a one-night PSG qualification visit. The PSG qualification visit (Visit 2) will begin on Study Day −7 and will continue to Study Day −6. The CRC will determine the median habitual bedtime from their sleep diary. Subjects should arrive at the clinic about 7 hours prior to their habitual bedtime for the one-night PSG qualification visit. Subjects will receive a standard meal and be prepared for overnight PSG recording. Lights out and PSG recording will begin five hours (±30 minutes) earlier than their mean habitual bedtime. Subjects will be required to remain in bed for eight hours, after which time the PSG recording will end, lights will turn on, and subjects will be awakened if asleep. Subjects will complete a Post Sleep Questionnaire about their subjective sleep thirty minutes after the end of the recording. Subjects will be discharged after all morning assessments have been completed at the discretion of the investigator. Subjects will have the option to remain in the clinic (e.g., to sleep at the clinic) until 9 AM.
Treatment Period 1 (Visit 3) begins on Study Day 1 and continues till Study Day 2. Subjects should arrive at the clinic approximately 7 hours prior to their habitual bedtime. Eligibility criteria will be confirmed and subjects will be randomized (1:1:1:1:1:1) to one of six possible treatment sequences (see FIG. 1). Predose assessments will be conducted. Subjects will receive a standard meal and be prepared for overnight PSG recording. Thirty minutes (±15 minutes) prior to lights out, blinded study drug (30 mg Compound 1, 45 mg Compound 1, or placebo) will be administered with food. Lights out and the PSG recording will begin five hours (±30 minutes) prior to their habitual bedtime. Subjects will be required to remain in bed for eight hours, after which time the lights will turn on, and subjects will be awakened if asleep. The PSG recording will end after 5 minutes (±1 minute) of quiet wakefulness is recorded. Subjects should complete a Post Sleep Questionnaire 30 minutes after the end of the recording. Post-PSG safety assessments will be conducted per the Schedule of Assessments. […] Subjects will have the option to remain in the clinic (e.g., to sleep at the clinic) until 9:00 AM.
Treatment Period 2 (Visit 4, Study Days 8 to 9) and Treatment Period 3 (Visit 5, Study Days 15 to 16) will follow similar procedures. Subjects will resume normal sleep patterns and maintain a sleep diary during the washout periods between treatments.
For Treatment Periods 1, 2, and 3, each subject will receive a single dose of study drug (30 mg Compound 1, 45 mg Compound 1, or placebo) on 3 separate visits; each subject will receive each dose level or placebo once. Study subjects who participate in Treatment Period 4 will receive one additional single dose of Compound 1 (30 mg) during one separate study visit.
The Efficacy Set will include all subjects in the Safety Set who have post-dose PSG data. Sleep efficiency will be analyzed using a mixed effects model for repeated measures (MMRM); the model will include treatment, treatment sequence, and period as fixed effects, with adjustment for screening sleep efficiency. […]

C[C@@]1(O)CC[C@H]2[C@H](CC[C@@H]3[C@@H]2CC[C@]2(C)[C@@H](C(=O)Cn4cc(C#N)cn4)CC[C@@H]32)C1 [Compound 1]
intensity of adverse events (healthy adults): mild | serious or severe adverse events (healthy adults): no serious or severe adverse events were observed | Latency to persistent sleep (LPS) (min), Median Difference from Placebo ([1]; 30 mg): -1.50 min | Mean Duration of Awakenings (mDURAW) (min), Median Difference from Placebo ([1]; 30 mg): −3.43** min | Number of Awakenings (NAW), Median Difference from Placebo ([1]; 30 mg): −1.00 | REM Sleep ([1]; 30 mg): 50.15 min | Sleep Efficiency (SE) (%), Median Difference from Placebo ([1]; 30 mg): 11.35* % | Stage N1 ([1]; 30 mg): 20.11 min | Stage N2 ([1]; 30 mg): 258.16 min | Stage N3 (SWS) ([1]; 30 mg): 68.38 min | Subjective Sleep Latency (sSL) (min) Median (min, max) ([1]; 30 mg): 15 (2, 240) min | Subjective TST (sTST) (min) Median (min, max) ([1]; 30 mg): 450.0 (40, 555) min | Subjective WASO (sWASO) (min) Median (min, max) ([1]; 30 mg): 10.0 (0, 120) min | Total sleep time (TST) (min), Median Difference from Placebo ([1]; 30 mg): 54.50* min | Wakefulness after sleep onset (WASO (min), Median Difference from Placebo) ([1]; 30 mg): −22.00* min | effect on REM sleep ([1]; 30 mg and 45 mg): did not disrupt REM sleep | LPS (min), Median ([1]; 30 mg single evening dose): 13.25 min | NAW, Median ([1]; 30 mg single evening dose): 8.00 | SE (%) (sleep efficiency), Median ([1]; 30 mg single evening dose): 84.64% | TST (min), Median ([1]; 30 mg single evening dose): 406.25 min | WASO (min), Median ([1]; 30 mg single evening dose): 55.00 min | mDURAW (min), Median ([1]; 30 mg single evening dose): 4.23 min | decrease in median duration of awakenings from baseline ([1]; 30 mg): 2.629 | TST median change (increase) from baseline ([1]; 30 mg): 85.25 min | Sleep efficiency (SE) increase from baseline (median) ([1]; 30 mg): 17.761% | WASO median change from baseline ([1]; 30 mg): -74.75 min | LPS decrease from median baseline ([1]; 30 mg, median baseline 28.50): 13.25 min | Subjective Sleep Quality (sSQ) Median (min, max) ([1]; 30 mg): 8.0 (5, 10) | Latency to persistent sleep (LPS) (min), Median Difference from Placebo ([1]; 45 mg): -1.00 min | Mean Duration of Awakenings (mDURAW) (min), Median Difference from Placebo ([1]; 45 mg): −1.50+ min | Number of Awakenings (NAW), Median Difference from Placebo ([1]; 45 mg): −2.00 | REM Sleep ([1]; 45 mg): 43.54 min | Sleep Efficiency (SE) (%), Median Difference from Placebo ([1]; 45 mg): 12.61* % | Stage N1 ([1]; 45 mg): 19.58 min | Stage N2 ([1]; 45 mg): 266.79 min | Stage N3 (SWS) ([1]; 45 mg): 74.71 min | Subjective Sleep Latency (sSL) (min) Median (min, max) ([1]; 45 mg): 10 (1, 60) min | Subjective TST (sTST) (min) Median (min, max) ([1]; 45 mg): 465.0 (0, 510) min | Subjective WASO (sWASO) (min) Median (min, max) ([1]; 45 mg): 5.0 (0, 300) min | Total sleep time (TST) (min), Median Difference from Placebo ([1]; 45 mg): 60.50* min | Wakefulness after sleep onset (WASO (min), Median Difference from Placebo) ([1]; 45 mg): −55.50* min | LPS (min), Median ([1]; 45 mg single evening dose): 14.25 min | NAW, Median ([1]; 45 mg single evening dose): 7.00 | SE (%) (sleep efficiency), Median ([1]; 45 mg single evening dose): 87.55% | TST (min), Median ([1]; 45 mg single evening dose): 420.25 min | WASO (min), Median ([1]; 45 mg single evening dose): 42.50 min | mDURAW (min), Median ([1]; 45 mg single evening dose): 3.67 min | decrease in median duration of awakenings from baseline ([1]; 45 mg): 4.261 | TST median change (increase) from baseline ([1]; 45 mg): 96.00 min | Sleep efficiency (SE) increase from baseline (median) ([1]; 45 mg): 20.000% | WASO median change from baseline ([1]; 45 mg): -75.25 min | Subjective Sleep Quality (sSQ) Median (min, max) ([1]; 45 mg): 9.0 (6, 10) | LPS decrease from baseline ([1]; median baseline 28.50): 14.50 min | impact on latency to persistent sleep (LPS) ([1]; single dose capsule of 30 mg or 45 mg in the evening): did not impact
